Experimental data from patent US8343951B2, “Volatile sulfide production inhibitor and method for inhibiting the production of volatile sulfide using the inhibitor” (Kabushiki Kaisha Hayashibara Seibutsu Kagaku Kenkyujo, priority 2006, dated 2013).

Legend:
[1] = Dimethyl-sulfide and dimethyl-disulfide production from heated milk (headspace gas chromatography); conditions: for Produced Dimethyl-disulfide / Produced Dimethyl-sulfide: milk heated 130° C. one minute; for production of volatile sulfides (dimethyl-sulfide and dimethyl-disulfide) from the test solutions / Produced Volatile sulfide: milk; for Inhibiting rate of volatile sulfide production: relative to control milk; for Produced Volatile sulfide: sum of dimethyl-sulfide and dimethyl-disulfide
Experimental: AA-2G (reagent grade, commercialized by Hayashibara Biochemical Laboratories, Inc.) was added in commercial milk to give the concentrations described in Table 2 to make the test solutions. Test solutions containing ascorbic acid were prepared in the same way except for using ascorbic acid (guaranteed regent) in place of AA-2G. The commercial milk was used plain as control. Sensory test of the solutions was performed by 11 panelists to evaluate the taste of each test solution added with AA-2G or ascorbic acid as being different (D) from control or as being the same (S) as control. As a result, eight or more of the 11 panelists gave a same evaluation to each test solution.
One ml of the above samples were put into 20 ml-vials and sealed with butyl rubber cap and aluminum seal. After heated at 130° C. for one minute, the amounts of dimethyl-sulfide and dimethyl-disulfide in the headspace were measured by gas chromatography in conventional way. The sums of them were shown as the amounts of volatile sulfide in Table 2. Also the inhibiting rates (%) of volatile sulfide production were shown in Table 2, which were obtained by subtracting the percentage amounts of volatile sulfide produced from ml of the test solutions relative to the amount of volatile sulfide produced from 1 ml of control (milk) from 100 to obtain.

[2] = Hydrogen sulfide production from heated mackerel meat homogenate (headspace detecting tube); conditions: for Produced Volatile sulfide: hydrogen sulfide in headspace; for Inhibiting rate of volatile sulfide production: hydrogen sulfide, relative to control
Experimental: AA-2G (reagent grade, commercialized by Hayashibara Biochemical Laboratories, Inc.) was dissolved in distilled water to give a solution of a concentration of 10%. A certain amount of the solution and 5 ml of 500 mM phosphate buffer (pH 7.0) were put into measuring flask and filled up to 50 ml to give the test solutions containing AA-2G at the twofold concentration described in Table 1. Also the test solutions containing ascorbic acid were prepared in the same way except for using ascorbic acid (guaranteed regent) in place of AA-2G. Five ml of 500 mM phosphate buffer (pH 7.0) was filled up to 50 ml with distilled water to give control solution. Edible part of commercial mackerel fillet without bone and skin was chopped with trio blender and homogeneously stirred to make minced mackerel. Forty-five grams of the minced mackerel was put into a beaker and added with 45 g of the test solution or control solution to give the samples at the concentration of AA-2G or ascorbic acid described in Table 1. The samples were treated with homogenizer (produced by IKA Works Inc.) at ice-chilled temperature to give the homogenates as the test samples. PH of the homogenates is from 6.21 to 6.38. Ten grams of the above samples were put into 20 ml-vials and sealed with butyl rubber cap and aluminum seal. They were heated in boiled water bath for 15 minutes and cooled in running cool water. After cooled, they were heated on heating block (80° C.) for 10 minutes and the solidified samples were broken with vortex mixer. The amounts of hydrogen sulfide in the headspace gas were measured by hydrogen sulfide detecting tube ([…] No. 4LT, produced by GL Sciences Inc.). Also the inhibiting rate (%) of hydrogen sulfide production were shown in Table 1, which were obtained by subtracting the percentage amounts of hydrogen sulfide produced from 1 g of mackerel meats added with test solutions relative to the amount of hydrogen sulfide produced from 1 g of mackerel meat added with control solution from 100 to obtain.

O=C1O[C@H]([C@@H](O)CO)C(O)=C1O[C@H]1O[C@H](CO)[C@@H](O)[C@H](O)[C@H]1O [AA-2G, α-D-glucopyronosyl-(1→2)-L-ascorbic acid]
Produced Dimethyl-disulfide ([1]; additive 0.0001% in sample): 0.54 μg/ml-milk | Produced Dimethyl-sulfide ([1]; additive 0.0001% in sample): 1.30 μg/ml-milk | Produced Dimethyl-disulfide ([1]; additive 0.0005% in sample): 0.43 μg/ml-milk | Produced Dimethyl-sulfide ([1]; additive 0.0005% in sample): 1.12 μg/ml-milk | Produced Dimethyl-disulfide ([1]; additive 0.001% in sample): 0.37 μg/ml-milk | Produced Dimethyl-sulfide ([1]; additive 0.001% in sample): 0.75 μg/ml-milk | Produced Dimethyl-disulfide ([1]; additive 0.005% in sample): 0.14 μg/ml-milk | Produced Dimethyl-sulfide ([1]; additive 0.005% in sample): 0.23 μg/ml-milk | Produced Dimethyl-disulfide ([1]; additive 0.01% in sample): 0.14 μg/ml-milk | Produced Dimethyl-sulfide ([1]; additive 0.01% in sample): 0.11 μg/ml-milk | Produced Dimethyl-disulfide ([1]; additive 0.05% in sample): 0.07 μg/ml-milk | Produced Dimethyl-sulfide ([1]; additive 0.05% in sample): 0.07 μg/ml-milk | Produced Dimethyl-disulfide ([1]; additive 0.1% in sample): 0.07 μg/ml-milk | Produced Dimethyl-sulfide ([1]; additive 0.1% in sample): 0.06 μg/ml-milk | Produced Dimethyl-disulfide ([1]; additive 0.5% in sample): 0.08 μg/ml-milk | Produced Dimethyl-sulfide ([1]; additive 0.5% in sample): 0.10 μg/ml-milk | Produced Dimethyl-disulfide ([1]; additive 2.5% in sample): 0.19 μg/ml-milk | Produced Dimethyl-sulfide ([1]; additive 2.5% in sample): 0.28 μg/ml-milk | production of volatile sulfides (dimethyl-sulfide and dimethyl-disulfide) from the test solutions ([1]; concentration from 0.005 to 0.5%): strongly inhibited | production of volatile sulfides (dimethyl-sulfide and dimethyl-disulfide) from the test solutions ([1]; concentration of 0.0005% or more, compared to control): inhibited | Inhibiting rate of volatile sulfide production ([1]; additive 0.0001% in sample): 2.6% | Inhibiting rate of volatile sulfide production ([1]; additive 0.0005% in sample): 18.0% | Inhibiting rate of volatile sulfide production ([1]; additive 0.001% in sample): 40.7% | Inhibiting rate of volatile sulfide production ([1]; additive 0.005% in sample): 80.4% | Inhibiting rate of volatile sulfide production ([1]; additive 0.01% in sample): 86.8% | Inhibiting rate of volatile sulfide production ([1]; additive 0.05% in sample): 92.6% | Inhibiting rate of volatile sulfide production ([1]; additive 0.1% in sample): 93.1% | Inhibiting rate of volatile sulfide production ([1]; additive 0.5% in sample): 90.5% | Inhibiting rate of volatile sulfide production ([1]; additive 2.5% in sample): 75.1% | Produced Volatile sulfide ([1]; additive 0.0001% in sample): 1.94 µg/mL | Produced Volatile sulfide ([1]; additive 0.0005% in sample): 1.55 µg/mL | Produced Volatile sulfide ([1]; additive 0.001% in sample): 1.12 µg/mL | Produced Volatile sulfide ([1]; additive 0.005% in sample): 0.37 µg/mL | Produced Volatile sulfide ([1]; additive 0.01% in sample): 0.25 µg/mL | Produced Volatile sulfide ([1]; additive 0.05% in sample): 0.14 µg/mL | Produced Volatile sulfide ([1]; additive 0.1% in sample): 0.13 µg/mL | Produced Volatile sulfide ([1]; additive 0.5% in sample): 0.18 µg/mL | Produced Volatile sulfide ([1]; additive 2.5% in sample): 0.47 µg/mL | hydrogen sulfide production from homogenate of mackerel meat ([2]; AA-2G concentration of 0.1%): enhanced | hydrogen sulfide production from homogenate of mackerel meat ([2]; concentration in a range from 0.0005 to 0.5%, versus control): inhibited | Produced Volatile sulfide ([2]; additive 0.0001% in sample): 44.5 μg/g-mackerel | Produced Volatile sulfide ([2]; additive 0.0005% in sample): 30.7 μg/g-mackerel | Produced Volatile sulfide ([2]; additive 0.001% in sample): 17.4 μg/g-mackerel | Produced Volatile sulfide ([2]; additive 0.005% in sample): 11.5 μg/g-mackerel | Produced Volatile sulfide ([2]; additive 0.01% in sample): 13.2 μg/g-mackerel | Produced Volatile sulfide ([2]; additive 0.025% in sample): 16.1 μg/g-mackerel | Produced Volatile sulfide ([2]; additive 0.05% in sample): 19.9 μg/g-mackerel | Produced Volatile sulfide ([2]; additive 0.1% in sample): 25.9 μg/g-mackerel | Produced Volatile sulfide ([2]; additive 0.5% in sample): 38.2 μg/g-mackerel | Produced Volatile sulfide ([2]; additive 1.0% in sample): 48.5 μg/g-mackerel | Inhibiting rate of volatile sulfide production ([2]; additive 0.0001% in sample): −3.0% | Inhibiting rate of volatile sulfide production ([2]; additive 0.0005% in sample): 28.9% | Inhibiting rate of volatile sulfide production ([2]; additive 0.001% in sample): 59.7% | Inhibiting rate of volatile sulfide production ([2]; additive 0.005% in sample): 73.4% | Inhibiting rate of volatile sulfide production ([2]; additive 0.01% in sample): 69.4% | Inhibiting rate of volatile sulfide production ([2]; additive 0.025% in sample): 62.7% | Inhibiting rate of volatile sulfide production ([2]; additive 0.05% in sample): 53.9% | Inhibiting rate of volatile sulfide production ([2]; additive 0.1% in sample): 40.0% | Inhibiting rate of volatile sulfide production ([2]; additive 0.5% in sample): 11.6% | Inhibiting rate of volatile sulfide production ([2]; additive 1.0% in sample): −12.3%

O=C1O[C@H]([C@@H](O)CO)C(O)=C1O [Ascorbic acid, L-ascorbic acid, reference compound]
Produced Dimethyl-disulfide ([1]; additive 0.0001% in sample): 0.56 μg/ml-milk | Produced Dimethyl-sulfide ([1]; additive 0.0001% in sample): 1.32 μg/ml-milk | Produced Dimethyl-disulfide ([1]; additive 0.0005% in sample): 0.54 μg/ml-milk | Produced Dimethyl-sulfide ([1]; additive 0.0005% in sample): 1.41 μg/ml-milk | Produced Dimethyl-disulfide ([1]; additive 0.001% in sample): 0.51 μg/ml-milk | Produced Dimethyl-sulfide ([1]; additive 0.001% in sample): 1.28 μg/ml-milk | Produced Dimethyl-disulfide ([1]; additive 0.005% in sample): 0.24 μg/ml-milk | Produced Dimethyl-sulfide ([1]; additive 0.005% in sample): 0.71 μg/ml-milk | Produced Dimethyl-disulfide ([1]; additive 0.01% in sample): 0.21 μg/ml-milk | Produced Dimethyl-sulfide ([1]; additive 0.01% in sample): 0.45 μg/ml-milk | Produced Dimethyl-disulfide ([1]; additive 0.05% in sample): 0.18 μg/ml-milk | Produced Dimethyl-sulfide ([1]; additive 0.05% in sample): 0.54 μg/ml-milk | Produced Dimethyl-disulfide ([1]; additive 0.1% in sample): 0.27 μg/ml-milk | Produced Dimethyl-sulfide ([1]; additive 0.1% in sample): 0.61 μg/ml-milk | Produced Dimethyl-disulfide ([1]; additive 0.5% in sample): 0.31 μg/ml-milk | Produced Dimethyl-sulfide ([1]; additive 0.5% in sample): 0.74 μg/ml-milk | Produced Dimethyl-disulfide ([1]; additive 2.5% in sample): 0.38 μg/ml-milk | Produced Dimethyl-sulfide ([1]; additive 2.5% in sample): 1.07 μg/ml-milk | production of volatile sulfides (dimethyl-sulfide and dimethyl-disulfide) from the test solutions ([1]; concentration of 0.001% or less): equal to control | production of volatile sulfides (dimethyl-sulfide and dimethyl-disulfide) from the test solutions ([1]; concentration of 0.005%): inhibited | Inhibiting rate of volatile sulfide production ([1]; additive 0.0001% in sample): 0.5% | Inhibiting rate of volatile sulfide production ([1]; additive 0.0005% in sample): −3.2% | Inhibiting rate of volatile sulfide production ([1]; additive 0.001% in sample): 5.3% | Inhibiting rate of volatile sulfide production ([1]; additive 0.005% in sample): 49.7% | Inhibiting rate of volatile sulfide production ([1]; additive 0.01% in sample): 65.1% | Inhibiting rate of volatile sulfide production ([1]; additive 0.05% in sample): 61.9% | Inhibiting rate of volatile sulfide production ([1]; additive 0.1% in sample): 53.4% | Inhibiting rate of volatile sulfide production ([1]; additive 0.5% in sample): 44.4% | Inhibiting rate of volatile sulfide production ([1]; additive 2.5% in sample): 23.3% | Produced Volatile sulfide ([1]; additive 0.0001% in sample): 1.88 µg/mL | Produced Volatile sulfide ([1]; additive 0.0005% in sample): 1.95 µg/mL | Produced Volatile sulfide ([1]; additive 0.001% in sample): 1.79 µg/mL | Produced Volatile sulfide ([1]; additive 0.005% in sample): 0.95 µg/mL | Produced Volatile sulfide ([1]; additive 0.01% in sample): 0.66 µg/mL | Produced Volatile sulfide ([1]; additive 0.05% in sample): 0.72 µg/mL | Produced Volatile sulfide ([1]; additive 0.1% in sample): 0.88 µg/mL | Produced Volatile sulfide ([1]; additive 0.5% in sample): 1.05 µg/mL | Produced Volatile sulfide ([1]; additive 2.5% in sample): 1.45 µg/mL | hydrogen sulfide production from homogenate of mackerel meat ([2]; concentration of 0.005% or less): equal to control | hydrogen sulfide production from homogenate of mackerel meat ([2]; concentration of 0.01% or more): enhanced | Produced Volatile sulfide ([2]; additive 0.0001% in sample): 44.1 μg/g-mackerel | Produced Volatile sulfide ([2]; additive 0.0005% in sample): 43.4 μg/g-mackerel | Produced Volatile sulfide ([2]; additive 0.001% in sample): 43.6 μg/g-mackerel | Produced Volatile sulfide ([2]; additive 0.005% in sample): 42.9 μg/g-mackerel | Produced Volatile sulfide ([2]; additive 0.01% in sample): 71.7 μg/g-mackerel | Produced Volatile sulfide ([2]; additive 0.025% in sample): 133.9 μg/g-mackerel | Produced Volatile sulfide ([2]; additive 0.05% in sample): 139.3 μg/g-mackerel | Produced Volatile sulfide ([2]; additive 0.1% in sample): 207.1 μg/g-mackerel | Produced Volatile sulfide ([2]; additive 0.5% in sample): 257.4 μg/g-mackerel | Produced Volatile sulfide ([2]; additive 1.0% in sample): 287.8 μg/g-mackerel | Inhibiting rate of volatile sulfide production ([2]; additive 0.0001% in sample): −2.1% | Inhibiting rate of volatile sulfide production ([2]; additive 0.0005% in sample): −0.5% | Inhibiting rate of volatile sulfide production ([2]; additive 0.001% in sample): −0.9% | Inhibiting rate of volatile sulfide production ([2]; additive 0.005% in sample): 0.7% | Inhibiting rate of volatile sulfide production ([2]; additive 0.01% in sample): −66.0% | Inhibiting rate of volatile sulfide production ([2]; additive 0.025% in sample): −210.0% | Inhibiting rate of volatile sulfide production ([2]; additive 0.05% in sample): −222.5% | Inhibiting rate of volatile sulfide production ([2]; additive 0.1% in sample): −379.4% | Inhibiting rate of volatile sulfide production ([2]; additive 0.5% in sample): −495.8%
